EC50 data for 46 molecules are collected here from BindingDB's records for doi:10.1021/acs.jmedchem.9b01567 (Peking Union Medical College, 2020).

Broadly, the EC50 is the concentration giving half of the maximal effect.

A value given as a limit tells only on which side of the number the result lay.

Molecular target in one experiment: not listed separately
The experiment can be described thus: Agonist activity at STING in human THP1 cells assessed as stimulation of IRF3 pathway measured after 20 hrs by luciferase reporter gene assay.
For `COc1cc(C(N)=O)cc2nc(NC(=O)c3nccc4ccccc34)n(CCCNC(=O)OCc3ccccc3)c12`, the EC50 was over 100 µM. Same read-out and setting: next, `CCn1nc(C)cc1C(=O)Nc1nc2cc(C(=O)OC)cnc2n1CCCNC(=O)OC(C)(C)C`: over 100 µM.

On to `NC(=O)c1cc(OCCCN2CCOCC2)c2c(c1)nc(NC(=O)c1ccccn1)n2CCCNC(=O)OCc1ccccc1`, for which the EC50 was over 100 µM.

As for `CCn1nc(C)cc1C(=O)Nc1nc2cc(C(N)=O)cc(OC)c2n1CCCNC(=O)CCc1cc(OC)c(OC)c(OC)c1`, the EC50 is over 100 µM.

`CCn1nc(C)cc1C(=O)Nc1nc2cc(C(N)=O)cc(OC)c2n1CCCNC(=O)CCC(=O)OC`: the EC50 was over 100 µM. On the same count and under the same terms, next, `NC(=O)c1cc(OCCCN2CCOCC2)c2c(c1)nc(NC(=O)c1cccnn1)n2CCCNC(=O)OCc1ccccc1`: over 100 µM; `CCn1nc(C)cc1C(=O)Nc1nc2cc(C(N)=O)cc(OC)c2n1CCCNC(=O)c1ccccc1`: over 100 µM; `CCCn1c(NC(=O)c2cccnn2)nc2cc(C(N)=O)cc(OC)c21`: over 100 µM. Still for that read-out and setting: the value for `COc1cc(C(N)=O)cc2nc(NC(=O)c3cccn3C)n(CCCNC(=O)OCc3ccccc3)c12` was over 100 µM; that for `CCCn1c(NC(=O)c2cc3ccccc3n2C)nc2cc(C(N)=O)cc(OC)c21` was over 100 µM. Same read-out and setting: the value for `COc1cc(C(N)=O)cc2nc(NC(=O)C3CCCN3C)n(CCCNC(=O)OCc3ccccc3)c12` (centres undefined) was over 100 µM; that for `CCCn1c(NC(=O)c2cc(C)nn2CC)nc2cccc(OC)c21` was over 100 µM.

On to `CCn1nc(C)cc1C(=O)Nc1nc2cc(C(=O)O)cnc2n1CCCNC(=O)OC(C)(C)C`, for which the EC50 is over 100 µM. On the same count and under the same terms, the value for `CCn1nc(C)cc1C(=O)Nc1nc2cc(C(N)=O)cc(OC)c2n1CCCNC(=O)OCc1ccccc1` was 0.872 µM; that for `COc1cc(C(N)=O)cc2nc(NC(=O)C3CCN(C)CC3)n(CCCNC(=O)OCc3ccccc3)c12` was over 100 µM; that for `COc1cc(C(N)=O)cc2nc(NC(=O)CCc3ccccc3)n(CCCNC(=O)OCc3ccccc3)c12` was over 100 µM. Same read-out and setting: the value for `COc1cc(C(N)=O)cc2nc(NC(=O)c3cc4ccccc4n3C)n(CCCNC(=O)OCc3ccccc3)c12` was over 100 µM; that for `CCCn1c(NC(=O)c2cc(C)nn2CC)nc2cc(C(=O)OC)cc(OC)c21` was over 100 µM.

With `COc1cc(C(N)=O)cc2nc(NC(=O)c3ccc4ccccc4n3)n(CCCNC(=O)OCc3ccccc3)c12`, the EC50 is over 100 µM.

As to `CCCn1c(NC(=O)c2ccc3ccccc3n2)nc2cc(C(N)=O)cc(OC)c21`, the concentration giving a half-maximal response (EC50) is over 100 µM. Still for that read-out and setting: the value for `COc1cc(C(N)=O)cc2nc(NC(=O)c3cncn3C)n(CCCNC(=O)OCc3ccccc3)c12` was over 100 µM; that for `CCCn1c(NC(=O)c2ccnn2C)nc2cc(C(N)=O)cc(OC)c21` was over 100 µM. Same read-out and setting: the value for `CCCn1c(NC(=O)c2ccccn2)nc2cc(C(N)=O)cc(OC)c21` was over 100 µM. Regarding `CCn1nc(C)cc1C(=O)Nc1nc2cc(C(N)=O)cc(OC)c2n1CCCN`, the EC50 is over 100 µM. The same measure, in the same setting: the value for `CCn1nc(C)cc1C(=O)Nc1nc2cc(C(=O)OC)cc(OC)c2n1CCCNC(=O)OCc1ccccc1` was 20.7 µM; that for `CCCn1c(NC(=O)CCc2ccccc2)nc2cc(C(N)=O)cc(OC)c21` was over 100 µM; that for `CCn1nc(C)cc1C(=O)Nc1nc2cc(C(N)=O)cc(OC)c2n1CCCNC(=O)CCc1cccnc1` was 39.5 µM.

Regarding `CCn1nc(C)cc1C(=O)Nc1nc2cc(C(N)=O)cnc2n1CCCNC(=O)OC(C)(C)C`, the EC50 is over 100 µM. Still for that read-out and setting: next, `CCn1nc(C)cc1C(=O)Nc1nc2cc(C(N)=O)cc(OC)c2n1CCCNC(=O)C(C)(C)C`: 27.5 µM; `CCn1nc(C)cc1C(=O)Nc1nc2cc(C(N)=O)ccc2n1CCCNC(=O)OCc1ccccc1`: over 100 µM. Turning to `COc1cc(C(N)=O)cc2nc(NC(=O)c3ccnn3C)n(CCCNC(=O)OCc3ccccc3)c12`, the EC50 is over 100 µM. Still for that read-out and setting: the value for `CCn1nc(C)cc1C(=O)Nc1nc2cccc(OC)c2n1CCCNC(=O)OCc1ccccc1` was over 100 µM; that for `CCn1nccc1C(=O)Nc1nc2cc(C(N)=O)cc(OC)c2n1CCCNC(=O)OCc1ccccc1` was over 100 µM; that for `CCCn1c(NC(=O)c2cncn2C)nc2cc(C(N)=O)cc(OC)c21` was over 100 µM. Still for that read-out and setting: the value for `CCn1nc(C)cc1C(=O)Nc1nc2cc(C(N)=O)cc(OC)c2n1CCCNC(=O)CCC(=O)O` was over 100 µM; that for `CCCn1c(NC(=O)c2nccc3ccccc23)nc2cc(C(N)=O)cc(OC)c21` was over 100 µM. The same measure, in the same setting: next, `CCCn1c(NC(=O)c2ccnn2CC)nc2cc(C(N)=O)cc(OC)c21`: over 100 µM; `COCCCOc1cc(C(N)=O)cc2nc(NC(=O)c3cccnn3)n(CCCNC(=O)OCc3ccccc3)c12`: over 100 µM.

For another experiment, the target named is T1, Interferon regulatory factor 3 (Homo sapiens, UniProt Q14653).
T1 sequence (Q14653 whole entry): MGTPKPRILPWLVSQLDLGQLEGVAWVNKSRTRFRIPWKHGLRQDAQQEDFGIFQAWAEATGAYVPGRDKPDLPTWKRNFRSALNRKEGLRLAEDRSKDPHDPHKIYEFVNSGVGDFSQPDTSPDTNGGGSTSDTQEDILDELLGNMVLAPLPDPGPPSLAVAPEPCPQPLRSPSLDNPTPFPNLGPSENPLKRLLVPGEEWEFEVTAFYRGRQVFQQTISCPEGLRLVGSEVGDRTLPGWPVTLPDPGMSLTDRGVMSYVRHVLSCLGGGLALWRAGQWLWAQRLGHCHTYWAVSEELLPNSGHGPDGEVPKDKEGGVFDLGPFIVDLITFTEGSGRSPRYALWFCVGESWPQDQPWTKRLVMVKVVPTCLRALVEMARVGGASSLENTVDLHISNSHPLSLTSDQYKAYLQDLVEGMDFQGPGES
The experiment can be described thus: Induction of IRF3 pathway in STING knockout human THP1 cells measured after 20 hrs by luciferase reporter gene assay.
Turning to `COc1cc(C(N)=O)cc2nc(NC(=O)c3nccc4ccccc34)n(CCCNC(=O)OCc3ccccc3)c12`, the EC50 is over 100 µM. The same measure, in the same setting: next, `CCn1nc(C)cc1C(=O)Nc1nc2cc(C(=O)OC)cnc2n1CCCNC(=O)OC(C)(C)C`: over 100 µM. `NC(=O)c1cc(OCCCN2CCOCC2)c2c(c1)nc(NC(=O)c1ccccn1)n2CCCNC(=O)OCc1ccccc1` gave an EC50 of over 100 µM. On the same count and under the same terms, the value for `COc1cc(C(N)=O)cc2nc(NC(=O)c3cccnn3)n(CCCCNC(=O)OC(C)(C)C)c12` was over 100 µM; that for `CCn1nc(C)cc1C(=O)Nc1nc2cc(C(N)=O)cc(OC)c2n1CCCNC(=O)CCc1cc(OC)c(OC)c(OC)c1` was over 100 µM; that for `CCn1nc(C)cc1C(=O)Nc1nc2cc(C(N)=O)cc(OC)c2n1CCCNC(=O)CCC(=O)OC` was over 100 µM. On the same count and under the same terms, next, `COc1cc(C(N)=O)cc2nc(NC(=O)c3cccnn3)n(CCCNC(=O)OCc3ccccc3)c12`: over 100 µM; `NC(=O)c1cc(OCCCN2CCOCC2)c2c(c1)nc(NC(=O)c1cccnn1)n2CCCNC(=O)OCc1ccccc1`: over 100 µM; `CCn1nc(C)cc1C(=O)Nc1nc2cc(C(N)=O)cc(OC)c2n1CCCNC(=O)c1ccccc1`: over 100 µM. As to `CCCn1c(NC(=O)c2cccnn2)nc2cc(C(N)=O)cc(OC)c21`, the EC50 is over 100 µM.

`COc1cc(C(N)=O)cc2nc(NC(=O)c3cccn3C)n(CCCNC(=O)OCc3ccccc3)c12` registered an EC50 of over 100 µM. Still for that read-out and setting: the value for `CCCn1c(NC(=O)c2cc3ccccc3n2C)nc2cc(C(N)=O)cc(OC)c21` was over 100 µM; that for `COc1cc(C(N)=O)cc2nc(NC(=O)C3CCCN3C)n(CCCNC(=O)OCc3ccccc3)c12` (centres undefined) was over 100 µM; that for `CCCn1c(NC(=O)c2cc(C)nn2CC)nc2cccc(OC)c21` was over 100 µM. Same read-out and setting: the value for `CCn1nc(C)cc1C(=O)Nc1nc2cc(C(=O)O)cnc2n1CCCNC(=O)OC(C)(C)C` was over 100 µM; that for `CCn1nc(C)cc1C(=O)Nc1nc2cc(C(N)=O)cc(OC)c2n1CCCNC(=O)OCc1ccccc1` was over 100 µM.

Take `COc1cc(C(N)=O)cc2nc(NC(=O)C3CCN(C)CC3)n(CCCNC(=O)OCc3ccccc3)c12`: the EC50 is over 100 µM. Same read-out and setting: next, `COc1cc(C(N)=O)cc2nc(NC(=O)CCc3ccccc3)n(CCCNC(=O)OCc3ccccc3)c12`: over 100 µM; `COc1cc(C(N)=O)cc2nc(NC(=O)c3cc4ccccc4n3C)n(CCCNC(=O)OCc3ccccc3)c12`: over 100 µM; `CCCn1c(NC(=O)c2cc(C)nn2CC)nc2cc(C(=O)OC)cc(OC)c21`: over 100 µM. On the same count and under the same terms, the value for `CCn1nc(C)cc1C(=O)Nc1nc2cc(C(N)=O)cc(OCCCN3CCOCC3)c2n1CCCNC(=O)OCc1ccccc1` was over 100 µM; that for `COc1cc(C(N)=O)cc2nc(NC(=O)c3ccccn3)n(CCCCNC(=O)OC(C)(C)C)c12` was over 100 µM; that for `COc1cc(C(N)=O)cc2nc(NC(=O)c3ccc4ccccc4n3)n(CCCNC(=O)OCc3ccccc3)c12` was over 100 µM.

Molecule `COc1cc(C(N)=O)cc2nc(NC(=O)c3ccccn3)n(CCCNC(=O)OCc3ccccc3)c12` displayed an EC50 of over 100 µM. On the same count and under the same terms, the value for `CCCn1c(NC(=O)c2ccc3ccccc3n2)nc2cc(C(N)=O)cc(OC)c21` was over 100 µM; that for `CCn1nc(C)cc1C(=O)Nc1nc2cc(C(N)=O)cc(OC)c2n1CCCNC(=O)OC(C)(C)C` was over 100 µM; that for `COc1cc(C(N)=O)cc2nc(NC(=O)c3cncn3C)n(CCCNC(=O)OCc3ccccc3)c12` was over 100 µM. Same read-out and setting: the value for `COCCCOc1cc(C(N)=O)cc2nc(NC(=O)c3ccccn3)n(CCCNC(=O)OCc3ccccc3)c12` was over 100 µM; that for `CCCn1c(NC(=O)c2ccnn2C)nc2cc(C(N)=O)cc(OC)c21` was over 100 µM.

Take `CCCn1c(NC(=O)c2ccccn2)nc2cc(C(N)=O)cc(OC)c21`: the EC50 was over 100 µM. For `CCn1nc(C)cc1C(=O)Nc1nc2cc(C(N)=O)cc(OC)c2n1CCCN`, the 50% effective concentration (EC50) is over 100 µM. Same read-out and setting: the value for `CCn1nc(C)cc1C(=O)Nc1nc2cc(C(=O)OC)cc(OC)c2n1CCCNC(=O)OCc1ccccc1` was 27.6 µM; that for `CCCn1c(NC(=O)CCc2ccccc2)nc2cc(C(N)=O)cc(OC)c21` was over 100 µM; that for `CCn1nc(C)cc1C(=O)Nc1nc2cc(C(N)=O)cc(OC)c2n1CCCNC(=O)CCc1cccnc1` was over 100 µM.

For the molecule `CCn1nc(C)cc1C(=O)Nc1nc2cc(C(N)=O)cnc2n1CCCNC(=O)OC(C)(C)C`, the EC50 was over 100 µM. On the same count and under the same terms, next, `CCn1nc(C)cc1C(=O)Nc1nc2cc(C(N)=O)cc(OC)c2n1CCCNC(=O)C(C)(C)C`: over 100 µM; `CCn1nc(C)cc1C(=O)Nc1nc2cc(C(N)=O)ccc2n1CCCNC(=O)OCc1ccccc1`: over 100 µM.

With `COc1cc(C(N)=O)cc2nc(NC(=O)c3ccnn3C)n(CCCNC(=O)OCc3ccccc3)c12`, the EC50 is over 100 µM. Take `CCn1nc(C)cc1C(=O)Nc1nc2cccc(OC)c2n1CCCNC(=O)OCc1ccccc1`: the EC50 was over 100 µM. Molecule `CCCn1c(NC(=O)c2cc(C)nn2CC)nc2cc(C(N)=O)ccc21` registered an EC50 of over 100 µM.

In turn, `CCn1nccc1C(=O)Nc1nc2cc(C(N)=O)cc(OC)c2n1CCCNC(=O)OCc1ccccc1` came in with an EC50 of over 100 µM.

`CCCn1c(NC(=O)c2cncn2C)nc2cc(C(N)=O)cc(OC)c21` came in with an EC50 of over 100 µM. With `CCn1nc(C)cc1C(=O)Nc1nc2cc(C(N)=O)cc(OC)c2n1CCCNC(=O)CCC(=O)O`, the EC50 is over 100 µM. On the same count and under the same terms, next, `CCCn1c(NC(=O)c2nccc3ccccc23)nc2cc(C(N)=O)cc(OC)c21`: over 100 µM.

`CCCn1c(NC(=O)c2ccnn2CC)nc2cc(C(N)=O)cc(OC)c21` showed an EC50 of over 100 µM. Turning to `COCCCOc1cc(C(N)=O)cc2nc(NC(=O)c3cccnn3)n(CCCNC(=O)OCc3ccccc3)c12`, the EC50 is over 100 µM.
